Like-named read-outs stand apart in the source and are kept apart here.

From PMC7071106 (Molecules, 2020) come the findings set out here.

The nature of series [1]: Cytotoxicity on VERO cell line (sulforhodamine B method). The class given is cell-based, mammalian. To be noted: African green monkey, 1–100 µM, means of three experiments. The protocol:
We cultivated 1.5 × 10^4 VERO cells in a 96-well plate and incubated in DMEM media complemented with 10% fetal bovine serum, 100 µg/mL streptomycin, and 100 UI/mL penicillin. The culture was incubated at 37 °C in a 5% CO2 atmosphere with 95% humidity for 48 h. […] After 48 h of incubation, viability of the cells was estimated using the sulforhodamine B method. The concentration of the compounds that killed 50% of the cells (CC50) was calculated by nonlinear fit (GraphPad Prism 4 software). All concentrations were evaluated in triplicate.
In general terms: In SRB staining, fixed cells bind dye roughly in proportion to their protein.

Another series has as its system Giardia duodenalis. Nature of the series: In vitro giardicidal susceptibility assay (trophozoite growth inhibition). The class given is cell-based, Giardia duodenalis (G. intestinalis strain IMSS:0696:1). To be noted: for SI = CC50/IC50 G. duodenalis: CC50 VERO cells / IC50 G. duodenalis; for IC50: trophozoites, 48 h incubation then 48 h subculture, means of three experiments, read-out: IC50 G. duodenalis. The procedure: (§1) G. intestinalis strain IMSS:0696:1 and T. vaginalis strain GT3 were cultured in TYI-S-33 medium, complemented with 10% calf serum and bovine bile. […] Subsequently, trophozoites were washed and subcultured for another 48 h in fresh medium without any drugs. Once this time was reached, trophozoites were counted and the median inhibitory concentration (IC50) was calculated. All the experiments were completed in triplicate.

Another series relates to Trichomonas vaginalis. Nature of the series: In vitro trichomonicidal susceptibility assay (trophozoite growth inhibition). The format is cell-based, Trichomonas vaginalis strain GT3. To be noted: for SI = CC50/IC50 T. vaginalis: CC50 VERO cells / IC50 T. vaginalis; for IC50: Trichomonas vaginalis, trophozoites, 48 h incubation then 48 h subculture, means of three experiments, read-out: IC50 T. vaginalis. The procedure: as §1

Consider `Cc1ncc([N+](=O)[O-])n1CCOC(=O)NC1CCCCC1` [Compound 1, 2-(2-methyl-5-nitro-1H-imidazol-1-yl)ethyl cyclohexylcarbamate], for which the CC50 at 48 h in series [1] (VERO cells) is over 100 µM. Moreover, the “SI = CC50/IC50 G. duodenalis” value with Giardia duodenalis is given as over 217. In the series on Giardia duodenalis (Giardia duodenalis, 48 h), the IC50 came out at 0.46 ± 0.01 µM. Moreover, in the series on Trichomonas vaginalis, the “SI = CC50/IC50 T. vaginalis” value is listed as over 1666 and the IC50 was 0.06 ± 0.01 µM.
`Cc1ncc([N+](=O)[O-])n1CCOC(=O)Nc1ccccc1` [Compound 2, 2-(2-methyl-5-nitro-1H-imidazol-1-yl)ethyl phenylcarbamate]: the CC50 at 48 h in series [1] (VERO cells) is over 100 µM. For the same compound, in the series with Giardia duodenalis, the “SI = CC50/IC50 G. duodenalis” value is over 102 and the IC50 worked out at 0.98 ± 0.01 µM. Further, in the series on Trichomonas vaginalis, the “SI = CC50/IC50 T. vaginalis” value is on record as over 1111 and the IC50 was determined as 0.09 ± 0.01 µM.
As for `Cc1ncc([N+](=O)[O-])n1CCOC(=O)Nc1ccc(Cl)cc1` [Compound 3, 2-(2-methyl-5-nitro-1H-imidazol-1-yl)ethyl (4-chlorophenyl)carbamate], the CC50 at 48 h in series [1] (VERO cells) was over 100 µM. Moreover, the “SI = CC50/IC50 G. duodenalis” value in the series with Giardia duodenalis is given as over 87. In addition, the IC50 with Giardia duodenalis (Giardia duodenalis, 48 h) stood at 1.14 ± 0.12 µM; in the series with Trichomonas vaginalis, 1.79 ± 0.12 µM. For the same compound, the “SI = CC50/IC50 T. vaginalis” value in the series on Trichomonas vaginalis was over 55.
For `Cc1ncc([N+](=O)[O-])n1CCOC(=O)Nc1ccc(F)cc1` [Compound 4, 2-(2-methyl-5-nitro-1H-imidazol-1-yl)ethyl (4-fluorophenyl)carbamate], in that order: over 100 µM, over 49, 2.03 ± 0.01 µM, 3.22 ± 0.21 µM and over 31.
On to `Cc1ncc([N+](=O)[O-])n1CCOC(=O)Nc1ccc([N+](=O)[O-])cc1` [Compound 5, 2-(2-methyl-5-nitro-1H-imidazol-1-yl)ethyl (4-nitrophenyl)carbamate], for which, in series [1] (read-out: CC50 VERO Cells), the CC50 at 48 h was over 100 µM. Also, the “SI = CC50/IC50 G. duodenalis” value in the series with Giardia duodenalis is recorded as over 41. In addition, the IC50 in the series with Giardia duodenalis (Giardia duodenalis, 48 h) was found to be 2.43 ± 0.02 µM. In the series on Trichomonas vaginalis, the “SI = CC50/IC50 T. vaginalis” value was over 16 and the IC50 was 6.25 ± 0.12 µM.
For `Cc1ncc([N+](=O)[O-])n1CC(C)OC(=O)NC1CCCCC1` (centres unmarked) [Compound 6, 1-methyl-2-(2-methyl-5-nitro-1H-imidazol-1-yl)ethyl cyclohexylcarbamate], the melting point was in the range of 219.2 to 222.7 °C. Also, the CC50 at 48 h in series [1] (VERO cells) is over 100 µM. For the same compound, the “SI = CC50/IC50 G. duodenalis” value with Giardia duodenalis is given as over 37. In addition, the IC50 with Giardia duodenalis (Giardia duodenalis, 48 h) was 2.64 ± 0.61 µM. In the series with Trichomonas vaginalis, the “SI = CC50/IC50 T. vaginalis” value is recorded as over 11 and the IC50 was 8.64 ± 0.73 µM.
For `Cc1ncc([N+](=O)[O-])n1CC(C)OC(=O)Nc1ccccc1` (centres unmarked) [Compound 7, 1-methyl-2-(2-methyl-5-nitro-1H-imidazol-1-yl)ethyl phenylcarbamate], the melting point lay in the range of 238.9 to 240.5 °C. Moreover, the CC50 at 48 h in series [1] (VERO cells) was over 100 µM. The “SI = CC50/IC50 G. duodenalis” value in the series on Giardia duodenalis was over 59. Besides, the IC50 in the series on Giardia duodenalis (Giardia duodenalis, 48 h) amounted to 1.67 ± 0.21 µM. In the series on Trichomonas vaginalis, the “SI = CC50/IC50 T. vaginalis” value is over 15 and the IC50 amounted to 6.52 ± 0.71 µM.
With `Cc1ncc([N+](=O)[O-])n1CC(C)OC(=O)Nc1ccc(Cl)cc1` (centres unmarked) [Compound 8, 1-methyl-2-(2-methyl-5-nitro-1H-imidazol-1-yl)ethyl (4-chlorophenyl)carbamate], the melting point was 268.1 °C (dec.). The same compound gave a CC50 at 48 h in series [1] (VERO cells) of over 100 µM. In addition, the “SI = CC50/IC50 G. duodenalis” value with Giardia duodenalis is over 24. Moreover, the IC50 with Giardia duodenalis (Giardia duodenalis, 48 h) was 4.05 ± 0.24 µM. In addition, in the series on Trichomonas vaginalis, the “SI = CC50/IC50 T. vaginalis” value is over 16 and the IC50 amounted to 5.93 ± 0.51 µM.
For the compound `Cc1ncc([N+](=O)[O-])n1CC(C)OC(=O)Nc1ccc(F)cc1` (centres unmarked) [Compound 9, 1-methyl-2-(2-methyl-5-nitro-1H-imidazol-1-yl)ethyl (4-fluorophenyl)carbamate], the melting point is 162.3 to 163.5 °C. For the same compound, the CC50 at 48 h in series [1] (VERO cells) is over 100 µM. In addition, the “SI = CC50/IC50 G. duodenalis” value with Giardia duodenalis is recorded as over 30. For the same compound, the IC50 in the series on Giardia duodenalis (Giardia duodenalis, 48 h) turned out to be 3.23 ± 0.11 µM. Also, in the series with Trichomonas vaginalis, the “SI = CC50/IC50 T. vaginalis” value is over 20 and the IC50 stood at 4.82 ± 1.08 µM.
As to `Cc1ncc([N+](=O)[O-])n1CC(C)OC(=O)Nc1ccc([N+](=O)[O-])cc1` (centres unmarked) [Compound 10, 1-methyl-2-(2-methyl-5-nitro-1H-imidazol-1-yl)ethyl (4-nitrophenyl)carbamate], the melting point is 235.4 °C (dec.). The CC50 at 48 h in series [1] (read-out: CC50 VERO Cells) was over 100 µM. In addition, the “SI = CC50/IC50 G. duodenalis” value in the series with Giardia duodenalis is over 116. For the same compound, in the series with Giardia duodenalis (Giardia duodenalis, 48 h), the IC50 turned out to be 0.86 ± 0.09 µM. In addition, in the series with Trichomonas vaginalis, the “SI = CC50/IC50 T. vaginalis” value is over 10 and the IC50 amounted to 9.99 ± 0.56 µM.
For the compound `Cc1ncc([N+](=O)[O-])n1CCO` [Metronidazole, metronidazole, reference compound], the CC50 at 48 h in series [1] (VERO cells) was over 100 µM. Also, the half-maximal inhibitory concentration (IC50) in the series on Trichomonas vaginalis is 0.93 ± 0.12 µM.
In the case of `Cc1ncc([N+](=O)[O-])n1CC(C)O` (centres unmarked) [Secnidazole, secnidazole, reference compound], in series [1] (VERO cells), the CC50 at 48 h is over 100 µM. Also, the “SI = CC50/IC50 G. duodenalis” value in the series on Giardia duodenalis was over 24. Further, the IC50 with Giardia duodenalis (Giardia duodenalis, 48 h) came to 4.11 ± 0.12 µM. For the same compound, in the series with Trichomonas vaginalis, the “SI = CC50/IC50 T. vaginalis” value is listed as over 7 and the IC50 stood at 13.5 ± 1.23 µM.

What is called CC50 is the concentration giving 50% cytotoxicity. Broadly, the IC50 is the concentration needed to halve the response being measured. Broadly, the melting point is the temperature, or range, at which the solid turns liquid.
